According to US8952006B2, “Morpholinoalkyl fumarate compounds, pharmaceutical compositions, and methods of use” (XenoPort, Inc., priority 2012, dated 2015):
Structures can show the parent of a compound that is named as a salt.

How the values were obtained:
[1] = test system: imiquimod (IMQ) mouse model of psoriasis; assay: Imiquimod (IMQ) mouse model of psoriasis; type: in vivo; conditions: oral dose of 90 mg-eq MMF/kg BID for 10 days in male Balb/C mice
Procedure: Imidquimod model of skin inflammation (Fits et al The Journal of Immunology, 2009, 182: 5836-5845). 10-12 week old BALB/c, I117c+/+ or I117c−/−, or I117re+/+ or I117re−/− mice were administered 50 mg Aldara cream (5% Imidquimod in Graceway, 3M) in the shaved back and right ear daily for 5 days. Clinical scoring and ear thickness measurements were performed daily. Scoring was based upon the manifestation of psoriatic symptoms, such as erythema, scaling and thickness: 0, No disease. 1, Very mild erythema with very mild thickening and scaling involving a small area. 2, Mild erythema with mild thickening and scaling involving a small area. 3, Moderate erythema with moderate thickening and scaling (irregular and patchy) involving a small area (<25%). 4, Severe erythema with marked thickening and scaling (irregular and patchy) involving a moderate area (25-50%). 5, Severe erythema with marked thickening and scaling (irregular and patchy) involving a large area (>50%). Ear and back tissue were harvested on day 5 for histological evaluation.
Efficacy of compounds of the disclosure and DMF is compared in the imiquimod (IMQ) mouse model of psoriasis. Balb/c mice (10 males/group) received daily topical IMQ (5% cream) on shaved back and right ear for 5 days as described above. Animals received oral dose of a representative compound of the disclosure or DMF (45 or 90 mg-eq MMF/kg twice daily) or vehicle from Day −5 to Day 5. Erythema score is the primary outcome measure.
The Erythema score values of the compounds tested at an oral dose of 90 mg-eq MMF/kg BID for 10 days in male Balb/C mice are set forth in Table 3, below.

[2] = test system: stomach lesions in the rat; assay: Annamalai-Ma gastrointestinal irritation rat model; type: in vivo; conditions: rats, oral 180 mg-equivalents MMF/kg once per day for 4 days; score 0 (normal mucosa) to 5 (severe ulceration), Table 4
Text: At least one MMF prodrug, e.g., dimethyl fumarate, is known to cause gastrointestinal irritation. The Annamalai-Ma gastrointestinal irritation rat model is predictive of gastrointestinal irritation of MMF prodrugs in humans. This animal model has several common features of other published GI irritation animal models including the Whiteley-Dalrymple model described in Models of Inflammation: Measuring Gastrointestinal Ulceration in the Rat, Pharmacology (1998) 10.2.1-10.2.4; as well as the animal models disclosed in Joseph J. Bertone, DVM, MS, DipACVIM. Prevalence of Gastric Ulcers in Elite, Heavy Use Western Performance Horses, AAEP Proceedings/Vol. 46/2000; and İsbíl Büyükcoskun N., Central Effects of Glucagon-like Peptide-1 on Cold Restraint Stress-induced Gastric Mucosal Lesions, Physiol. Res. 48: 451-455, 1999.
In order to assess gastrointestinal irritation using this model, rats are treated orally with either vehicle or the MMF prodrug of the present disclosure (n=10 per group) at 180 mg-equivalents MMF/kg of animal body weight, dosed once per day for 4 days, followed by necropsy and gastrointestinal evaluation at 24 hrs after the final dose. Evans Blue dye is injected IV (tail vein) to visually emphasize any lesions in the gastrointestinal tissue.
Accordingly, rats are dosed once per day for 4 consecutive days with 180 mg-equivalents MMF/kg body weight per day. The animals are fasted overnight prior to necropsy. On Day 5, to help visualize lesions, 1 mL of 1% Evan's blue in saline is injected into the tail vein 30 minutes prior to euthanasia. The animals are euthanized by inhalation of carbon dioxide. A partial necropsy, limited to the abdominal cavities, is then performed. The stomach and small intestine are removed. Residual material is washed away, using an irrigation syringe filled with saline. The stomach is cut along the larger curvature and washed gently with normal saline, and is examined for any lesions. The stomachs are scored in accordance with the scoring system outlined in Table 4.

[3] = cited from earlier work

melting point [°C] | Compound | Erythema Score (% Relative to IMQ) [1] | Stomach Irritation Score [2] | Aqueous solubility [3]
145.5 | COC(=O)/C=C/C(=O)OCCCCN1CCOCC1 (as salt: HCl) [Compound 6, Methyl(4-morpholinobutyl)fumarate HCl salt] | – | – | –
– | COC(=O)/C=C/C(=O)OCCCCCCN1CCOCC1 [Compound 10, Methyl(6-morpholinohexyl)fumarate HCl salt] | 66.7 % Relative to IMQ | 0 | –
104.1 | COC(=O)/C=C/C(=O)OCCCCCCN1CCOCC1 (as salt: HCl) [Compound 10, Methyl(6-morpholinohexyl)fumarate HCl salt] | – | – | –
– | COC(=O)/C=C/C(=O)OCCCN1CCOCC1 [Compound 4, Methyl(3-morpholinopropyl)fumarate HCl salt] | 73.3 % Relative to IMQ | 0 | –
– | COC(=O)/C=C/C(=O)OCCCCCN1CCOCC1 [Compound 8, Methyl(5-morpholinopentyl)fumarate HCl salt] | 59.3 % Relative to IMQ | 0 | –
185.2 | COC(=O)/C=C/C(=O)OCCCN1CCOCC1 (as salt: HCl) [Compound 4, Methyl(3-morpholinopropyl)fumarate HCl salt] | – | – | –
150 | COC(=O)/C=C/C(=O)OCCCCCN1CCOCC1 (as salt: HCl) [Compound 8, Methyl(5-morpholinopentyl)fumarate HCl salt] | – | – | –
– | COC(=O)/C=C/C(=O)OCC(=O)N1CCOCC1 [CC-1, reference compound] | – | 2.9 | –
– | COC(=O)/C=C/C(=O)OCCN1CCOCC1 [Compound 2, Methyl(2-morpholinoethyl)fumarate HCl salt] | 69 % Relative to IMQ | 0 | –
– | COC(=O)/C=C/C(=O)OC [DMF, dimethyl fumarate, reference compound] | 74.1 % Relative to IMQ | 4.6 | poor
– | COC(=O)/C=C/C(=O)OCCCCN1CCOCC1 [Compound 6, Methyl(4-morpholinobutyl)fumarate HCl salt] | 57.1 % Relative to IMQ | 0.6 | –
